Experimental data taken from the supplement of paper PMC10307832.

Key:
Assay in all cases: relative viability (nuclei count vs DMSO), 5 days (fraction); higher = more cells survive
[1] = compound: C1/C(=C\C2=CC=CS2)/C(=O)/C(=C/C3=CC=CS3)/C1 + CC(=O)Nc1cccc(-n2c(=O)n(C3CC3)c(=O)c3c(Nc4ccc(I)cc4F)n(C)c(=O)c(C)c32)c1 [Trametinib] (partner 0.02 µM)
Procedure, shortened: (§1)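 Relative viability is defined as nuclei in treated wells over nuclei in vehicle wells. Duplicate plates were run and medians reported. Lung cancer cell lines in 1536-well plates were dosed by pin tool one day after seeding, with one drug or with a fixed anchor-drug dose plus five library-drug doses (not always all listed) in √10 steps, and nuclei were counted after 5 days.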

[2] = compound: C1=CC(=CC=C1C2=CC(=C(S2)NC(=O)N)C(=O)N)F [TPCA-1] + Cc1nc(NC(=O)N2CCC[C@H]2C(N)=O)sc1-c1ccnc(C(C)(C)C(F)(F)F)c1 [Alpelisib] (partner 2 µM)
Procedure, shortened: as §1

[3] = compound: C[C@]12O[C@H](C[C@]1(O)CO)n1c3ccccc3c3c4c(c5c6ccccc6n2c5c31)CNC4=O [Lestaurtinib] + N=C(N)NC(=N)NCCc1ccccc1 [Phenformin] (partner 250 µM)
Procedure, shortened: as §1

[4] = compound: C1/C(=C\C2=CC=CS2)/C(=O)/C(=C/C3=CC=CS3)/C1 + CS(=O)(=O)N1CCN(Cc2cc3nc(-c4cccc5[nH]ncc45)nc(N4CCOCC4)c3s2)CC1 [Pictilisib] (partner 1 µM)
Procedure, shortened: as §1

Cell Line	relative viability ([1]; first compound 0.2 µM)	relative viability ([1]; first compound 0.6325 µM)	relative viability ([1]; first compound 2 µM)	relative viability ([1]; first compound 6.325 µM)	relative viability ([1]; first compound 20 µM)	relative viability ([2]; first compound 0.04 µM)	relative viability ([2]; first compound 0.1265 µM)	relative viability ([2]; first compound 0.4 µM)	relative viability ([2]; first compound 1.265 µM)	relative viability ([2]; first compound 4 µM)	relative viability ([3]; first compound 0.005 µM)	relative viability ([3]; first compound 0.01581 µM)	relative viability ([3]; first compound 0.05 µM)	relative viability ([3]; first compound 0.1581 µM)	relative viability ([3]; first compound 0.5 µM)	relative viability ([4]; first compound 0.2 µM)	relative viability ([4]; first compound 0.6325 µM)	relative viability ([4]; first compound 2 µM)	relative viability ([4]; first compound 6.325 µM)	relative viability ([4]; first compound 20 µM)
NCI-H2023	0.629	0.546	0.684	0.511	0.555	0.598	0.522	0.634	0.489	0.417	0.451	0.451	0.343	0.344	0.144	0.282	0.254	0.241	0.214	0.23
NCI-H2085	0.516	0.513	0.545	0.635	0.538	0.935	0.903	1	0.939	0.933	0.716	0.664	0.602	0.65	0.492	0.449	0.487	0.534	0.405	0.432
NCI-H2087	0.201	0.17	0.18	0.157	0.294	1.06	0.871	0.916	1.06	0.418	0.462	0.44	0.43	0.416	0.344	0.78	0.959	0.986	0.552	0.822
NCI-H2126	0.554	0.586	0.576	0.502	0.585	0.759	0.673	0.753	0.786	0.596	0.525	0.565	0.482	0.412	0.326	0.511	0.477	0.505	0.485	0.488
NCI-H2170	0.918	0.92	0.863	0.78	0.867	0.906	0.697	0.803	0.733	0.526	0.41	0.424	0.42	0.32	0.244	0.334	0.341	0.31	0.278	0.313
NCI-H2228	0.559	0.517	0.414	0.43	0.424	0.869	0.809	1.02	0.609	0.485	0.235	0.215	0.237	0.218	0.127	0.337	0.362	0.479	0.295	0.287
NCI-H2347	0.273	0.271	0.27	0.26	0.28	1.14	0.969	1.03	0.817	0.917	0.304	0.448	0.316	0.309	0.39	0.652	0.63	0.928	0.889	0.446
NCI-H2405	0.688	0.578	0.603	0.585	0.699	1.06	0.599	0.805	–	0.605	0.426	0.392	0.387	0.28	0.284	0.491	0.386	0.572	0.452	0.416
NCI-H3122	0.25	0.222	0.226	0.233	0.251	0.846	0.728	0.92	0.947	0.74	0.365	0.431	0.372	0.363	0.175	0.681	0.579	0.718	0.466	0.642
PC-3 [JPC-3]	–	0.731	0.753	0.613	0.759	1.01	1.02	1.04	0.957	0.958	0.434	0.504	0.352	0.477	0.386	0.65	0.765	0.798	0.629	0.719
PC-14	0.792	0.829	0.761	0.696	0.663	0.952	0.879	0.965	0.787	0.75	0.445	0.871	0.633	0.353	0.106	0.815	0.654	0.69	0.755	0.737
RERF-LC-KJ	0.924	0.879	0.846	0.741	0.739	0.974	0.774	0.773	0.733	0.699	0.448	0.38	0.391	0.419	0.295	0.566	0.583	0.583	0.42	0.494
SK-LU-1	0.563	0.503	0.536	0.411	0.489	1.16	0.805	1	0.605	0.452	0.46	0.488	0.293	0.329	0.163	0.583	0.709	0.649	0.56	0.665
SK-MES-1	0.601	0.58	0.549	0.502	0.568	0.935	0.704	0.996	0.691	0.586	0.693	0.59	0.484	0.441	0.186	0.282	0.355	0.391	0.268	0.382
SW 1573	0.637	0.573	0.674	0.491	0.596	0.872	0.631	0.659	0.709	0.784	0.421	0.439	0.214	0.28	0.0937	0.54	0.523	0.551	0.377	0.512
